Each structure is given as a SMILES string. Where two headings read alike, the source gives them in different places. A value given as a limit tells only on which side of the number the result lay.

The values that follow come from US10239856B2, “Synthesis of resorcylic acid lactones useful as therapeutic agents” (UNIVERSITY DE STRASBOURG, priority 2008, dated 2019).

One data set deals with HSP90α (Homo sapiens, UniProt P07900). Description: Affinity to HSP90α. It is filed as binding.
The subject of another data set is Her-2 (HSP90 client). Description: Her-2 (HSP90 client) degradation (client depletion). In kind it is cell-based. As to the method:
A number of the compounds of the invention were tested for affinity to HSP90α (see Kim et al., J. Biomol. Screen., 2004, 9, 375), Her-2 (HSP90 client) degradation (see Xu et al., J. Biol. Chem., 2001, 276, 3702), and cytotoxicity against SKBr3 and HCC1954, two breast cancer cell lines which over express Her-2.

The test system of a further data set is SKBr3. Put plainly: Cytotoxicity against SKBr3 breast cancer cells. As to conditions: Homo sapiens, SK-BR-3, first value of cell. It is filed as cell-based. As to the method: (§1) Compounds of the invention were assayed for cytotoxicity in HCC1954 and SK-BR-3 tumor cells.
The test system of a further data set is HCC1954. Put plainly: Cytotoxicity against HCC1954 breast cancer cells. It is filed as cell-based. As to conditions: Homo sapiens, second value of cell. The procedure:
as §1

The subject of a further data set is ErbB2 in SK-BR3. Put plainly: Degradation of HSP90 client ErbB2 in SK-BR3, Western blotting after 18 hrs treatment. In kind it is cell-based. Conditions: SK-BR3, 18 hrs treatment, E-oxime isomer.
The subject of data set [1] is BT-474 (breast tumor cell line) xenograft. Put plainly: BT-474 breast tumor xenograft in CB17/SCID mice. It is filed as in vivo. Set-up: Regression in tumor volume / Inhibition of tumor growth: dose or concentration left out as unconfirmed. As to the method: FIG. 1 depicts the tumor volume and animal weight change following treatment with compound 13a or control vehicle. Each point represents the mean of measurements from 5 (for vehicle) or 6 (for 13a) animals. The experiment was carried out for 28 days and tumor volumes were determined weekly by caliper measurement. Student's t-test was used to determine the statistical analysis of the difference between tumor volumes of vehicle-treated and drug-treated animals. Individual body weights were also determined weekly. Statistical significance was achieved (comparing tumor volumes in vehicle-treated and drug-treated animals) at day 21 for the q4d schedule (p=0.0497). In comparison, on the q2d schedule increasing statistical significance was achieved on days 14, 21, and 28, when comparing tumor volume of vehicle-treated and drug-treated animals (p=0.012, p=0.007, and p=0.0002, respectively).
Top panels represent hematoxylin & eosin (H & E) stained paraffin sections. Nuclei appear blue in color. The dark blue condensed nuclei in drug-treated tumors (right) are consistent with apoptotic cells. […] Bottom panels represent TUNEL (terminal deoxynucleotidyl transferase-mediated dUTP-biotin nick end labeling)-stained paraffin sections. The high preponderance of reddish-pink nuclei (positive for TUNEL staining) in the drug-treated tumors reflects DNA fragmentation which is characteristic of apoptosis. Blue arrowheads point to characteristic TUNEL positive nuclei.
Two schedules of 100 mg every other day (q2d) or every four days (q4d) during 28 days were investigated.
Based on the in vitro data shown in Table 3, compound 13a was further evaluated in vivo.

The test system of a further data set is HSP90. As to conditions: cited from earlier work.
Where [2] appears, read: Her-2 degradation; read-out: Client Depletion.
[3] abbreviates: read-out: Client Depletion; Her-2 degradation.

As for `O=C1OCC/C=C/CC/C=C/C(=N/OCC(=O)N2CCCCC2)Cc2c(Cl)c(O)cc(O)c21` [13a], the IC50 at HSP90α (read-out: HSP90 affinity) was found to be 21 nM; with Her-2 (HSP90 client) (setting [2]), 35 nM; in the data set on SKBr3, 125 nM; in the data set with HCC1954, 320 nM. In addition, the “Reduction of ErbB2 concentration compared with radicicol and 17-AAG” value (“Reduction of ErbB2 concentration” below) in the data set on ErbB2 in SK-BR3 is “significantly more effective than both radicicol and 17-AAG”. For the same compound, the Weight loss result in data set [1] (q2d and q4d schedules, 28 days) was “Neither the q2d nor the q4d schedules resulted in significant weight loss”. Moreover, the “Inhibition of tumor growth” value in data set [1] (q2d or q4d during 28 days) was “dose-dependent inhibition of the tumor growth”. Moreover, in data set [1] (q2d schedule, 28 days), the “Regression in tumor volume” value is 18%. Besides, in data set [1] (q2d schedule, 28 days), the “Tumor histology: cellularity” value is on record as “dramatic loss of cellularity”. Besides, in data set [1] (q2d schedule, 28 days), the “Tumor nuclear TUNEL staining (apoptosis)” value was “high degree of nuclear TUNEL staining”.
Take `O=C1OCC/C=C/CC/C=C/C(=N/OCC(=O)N2CCCCC2)Cc2cc(O)cc(O)c21` [13b]: the IC50 against HSP90α (HSP90 affinity) was determined as 15 nM; in the data set with Her-2 (HSP90 client) (setting [3]), 50 nM; in the data set on SKBr3, 120 nM; with HCC1954 it was 220 nM. Besides, the “Reduction of ErbB2 concentration” value in the data set with ErbB2 in SK-BR3 was “significantly more effective than both radicicol and 17-AAG”.
`C[C@@H]1C/C=C/CC/C=C/C(=N/OCC(=O)N2CCCCC2)Cc2cc(O)cc(O)c2C(=O)O1` [13c]: the IC50 against HSP90α (HSP90 affinity) is 18 nM; with Her-2 (HSP90 client) (setting [3]), 26 nM; with SKBr3 it was 450 nM; in the data set with HCC1954 it was 630 nM. In the data set on ErbB2 in SK-BR3, the “Reduction of ErbB2 concentration” value is “significantly more effective than both radicicol and 17-AAG”.
Regarding `O=C1OCC/C=C/CC/C=C/C(=NOCC(=O)N2CCNCC2)Cc2c(Cl)c(O)cc(O)c21` [13e], the IC50 at HSP90α (read-out: HSP90 affinity), in the data set with Her-2 (HSP90 client) (setting [2]), in the data set with SKBr3 and in the data set on HCC1954 was greater than 10000 nM each time.
Turning to `COC1CC/C=C/CCOC(=O)c2c(O)cc(O)c(Cl)c2C/C(=N\OCC(=O)N2CCCCC2)C1` (stereo not drawn) [13f], the IC50 was 68 nM on HSP90α (read-out: HSP90 affinity), 2400 nM in the data set with Her-2 (HSP90 client) (setting [2]), 1300 nM in the data set on SKBr3 and 2800 nM in the data set with HCC1954.
In the case of `O=C(CON=C1/C=C/CC/C=C/CCOC(=O)c2c(O)cc(O)c(Cl)c2C1)NCCO` [13h], the IC50 is 390 nM at HSP90α (read-out: HSP90 affinity), 7700 nM in the data set on Her-2 (HSP90 client) (setting [2]), 7500 nM in the data set on SKBr3 and greater than 10000 nM in the data set on HCC1954.
For `O=C(CON=C1/C=C/CC/C=C/CCOC(=O)c2c(O)cc(O)c(Cl)c2C1)NCc1ccccc1` [13j], the IC50 at HSP90α (read-out: HSP90 affinity) is 110 nM; in the data set on Her-2 (HSP90 client) (setting [2]), 5500 nM; with SKBr3, 3500 nM; in the data set with HCC1954, 8500 nM.
With `O=C(CON=C1/C=C/CC/C=C/CCOC(=O)c2c(O)cc(O)c(Cl)c2C1)NC1CCCCC1` [13k], the IC50 at HSP90α (read-out: HSP90 affinity) is 90 nM; in the data set on Her-2 (HSP90 client) (setting [2]), 250 nM; in the data set on SKBr3 it was 550 nM; in the data set with HCC1954, 450 nM.
`COC(=O)CON=C1/C=C/CC/C=C/CCOC(=O)c2c(O)cc(O)c(Cl)c2C1` [13l]: the IC50 at HSP90α (read-out: HSP90 affinity) is 190 nM; with Her-2 (HSP90 client) (setting [2]) it was 6500 nM; in the data set with SKBr3 it was greater than 10000 nM; in the data set with HCC1954, greater than 10000 nM.
Take `C=CCC/C=C/C(Cc1c(Cl)c(O)cc(O)c1C(=O)OCCC=C)=NOCC(=O)N1CCCCC1` [13m]: the IC50 on HSP90α (read-out: HSP90 affinity), in the data set with Her-2 (HSP90 client) (setting [2]), in the data set on SKBr3 and in the data set with HCC1954 was greater than 10000 nM in each case.
As to `O=C1OCC/C=C/CC/C=C/C(=N\OCC(=O)N2CCCCC2)Cc2c(Cl)c(O)cc(O)c21` [14a], the IC50 is 1800 nM at HSP90α (read-out: HSP90 affinity), greater than 10000 nM in the data set on Her-2 (HSP90 client) (setting [2]), greater than 10000 nM with SKBr3 and 5200 nM in the data set with HCC1954.
As for `O=C1OCC/C=C/CC/C=C/C(=N\OCC(=O)N2CCCCC2)Cc2cc(O)cc(O)c21` [14b], the IC50 is 110 nM against HSP90α (HSP90 affinity), 5000 nM in the data set with Her-2 (HSP90 client) (setting [3]), greater than 10000 nM with SKBr3 and greater than 10000 nM in the data set with HCC1954.
Turning to `C[C@@H]1CC2O[C@@H]2CC/C=C/C(=O)Cc2c(Cl)c(O)cc(O)c2C(=O)O1` (stereo partly drawn) [pochonin A], the “Inhibitor of HSP90” value in the data set with HSP90 is recorded as 90 nM.
